Data: US20230382909A1, “BICYCLIC COMPOUNDS” (Aligos Therapeutics, Inc., priority 2022, published 2023)
Where a name gives a salt, the structure may show the parent alone.

How the values were obtained:
[1] = tested on: HBV; assay: HBV-DNA antiviral assay using HepG2.117 cells; format: cell-based, HBV genotype D; conditions: Hepatitis B virus, HepG2.117, 72 h
Procedure: (§1) The following assay procedure describes the HBV antiviral assay, using HepG2.117 cells, which carry a stably integrated genotype D HBV genome under the control of a Tet-off promoter, and intracellular HBV DNA quantification as endpoint. Cell viability is assessed in parallel by measuring the intracellular ATP content using CellTiter-Glo 2.0 (Promega).
On day 0, HepG2.117 cells (which are maintained in routine cell culture with doxycycline present in the medium at a final concentration of 1 μg/mL) are seeded in 96-well plates (white with clear bottom) at a density of 2.0×10^4 cells/well (0.1 mL/well) in medium without doxycycline to induce pgRNA transcription and subsequent formation of HBV particles. The cells are incubated at 37° C. and 5% CO2.
(§2) On day 1, medium is removed from each well, the test articles are diluted in culture medium without doxcycyline and 100 μL was added to cell culture wells (9 concentrations, 4-fold dilution). For each plate, 6 untreated (merely DMSO) wells are included. The final concentration of DMSO in the culture medium is 2%. Each plate is prepared in duplicate (one for HBV DNA extraction, one for CellTiter-Glo 2.0 measurement). The cells are incubated at 37° C. and 5% CO2 for 3 days.
(§3) On day 4, cell viability is assessed using CellTiter-Glo 2.0 and cell lysates are prepared for HBV DNA extraction and subsequent quantification by qPCR.
HBV DNA Quantification by qPCR
Medium is removed from each well and 100 μL of 0.33% NP-40 in H2O was added to each well. Plates are sealed, incubated at 4° C. for 5 mins, vortexed extensively and centrifuged briefly. Next, 35 μL of lysate is added to 65 μL QuickExtract DNA Extraction Solution (Epicentre) in a PCR plate for each well. PCR plate is incubated at 65° C. for 6 mins, 98° C. for 2 mins and finally cooled to 4° C. HBV DNA is then quantified by qPCR with HBV-specific primers and probes as specified in Table 3 using the Bio-Rad SSOAdvanced Universal Probes Supermix on a CFX96 machine (Bio-Rad). The PCR cycle program consisted of 95° C. for 3 mins, followed by 40 cycles at 95° C. for 10 sec and 60° C. for 30 sec.
A DNA standard is prepared by dilution of an IDT gBlock corresponding to the amplicon with concentrations ranging from 10^2 to 10^8 copies/input (i.e., per 4 μL) and used to generate a standard curve by plotting Cq values vs. HBV DNA standard concentration. The quantity of HBV DNA in each sample is determined by interpolating from the standard curve.
(§4) Cell viability is calculated as follows: % Cell viability=(luminescence value of test sample)/(average luminescence value of 2% DMSO control)×100%. HBV DNA inhibition was calculated as follows: 100−(HBV DNA copy number of test sample)/(average HBV DNA copy number of 2% DMSO control)×100%. No normalization to entecavir is required due to the excellent dynamic window of this assay. The CC50, EC50 and EC9o values were determined by dose-response curves fitted using non-linear regression.

[2] = Cell viability by CellTiter-Glo 2.0 (intracellular ATP content) in HepG2.117 cells; format: cell-based; conditions: human, CellTiter-Glo 2.0, 3 days incubation
Procedure: as §1, §2, §3
Using the other plates, the cell viability is quantified by CellTiter-Glo 2.0 according to the manufacturer's manual. In brief, 100 μL of reagent solution is added to the culture plates and shaken for 2′. The plates are incubated at rt for 10 min and luminescence signal is subsequently measured on a VarioSkan Lux (ThermoFisher) plate reader.
as §4

Row | Compound | EC50 [1] [nM] | CC50 at 3 days [2] [nM]
1 | Cc1cc(C)n(-c2nc3c(c(=O)n2-c2ccc4c(c2)ncn4C)C[C@@H](C)N(C(=O)c2ccc(Br)c(C(F)(F)F)c2)C3)n1 [Compound 1, (R)-7-(4-bromo-3-(trifluoromethyl)benzoyl)-2-(3,5-dimethyl-1H-pyrazol-1-yl)-6-methyl-3-(1-methyl-1H-benzo[d]imidazol-5-yl)-5,6,7,8-tetrahydropyrido[3,4-d]pyrimidin-4(3H)-one] | < 50 | > 500
2 | CNC(=O)c1ccc(-n2c(-n3nc(C)cc3C)nc3c(c2=O)C[C@@H](C)N(C(=O)c2ccc(Br)c(C(F)(F)F)c2)C3)cc1Cl [Compound 2, (R)-4-(7-(4-bromo-3-(trifluoromethyl)benzoyl)-2-(3,5-dimethyl-1H-pyrazol-1-yl)-6-methyl-4-oxo-5,6,7,8-tetrahydropyrido[3,4-d]pyrimidin-3(4H)-yl)-2-chloro-N-methylbenzamide] | < 50 | > 500
3 | Cc1cc(C)n(-c2nc3c(c(=O)n2-c2ccc4c(ncn4C)n2)C[C@@H](C)N(C(=O)c2ccc(Br)c(C(F)(F)F)c2)C3)n1 [Compound 3, (R)-7-(4-bromo-3-(trifluoromethyl)benzoyl)-2-(3,5-dimethyl-1H-pyrazol-1-yl)-6-methyl-3-(1-methyl-1H-imidazo[4,5-b]pyridin-5-yl)-5,6,7,8-tetrahydropyrido[3,4-d]pyrimidin-4(3H)-one] | < 50 | > 500
4 | Cc1cc(C)n(-c2nc3c(c(=O)n2-c2ccc(O)cc2)C[C@@H](C)N(C(=O)c2ccc(Br)c(C(F)(F)F)c2)C3)n1 [Compound 4, (R)-7-(4-bromo-3-(trifluoromethyl)benzoyl)-2-(3,5-dimethyl-1H-pyrazol-1-yl)-3-(4-hydroxyphenyl)-6-methyl-5,6,7,8-tetrahydropyrido[3,4-d]pyrimidin-4(3H)-one] | < 50 | > 500
5 | Cc1cc(C)n(-c2nc3c(c(=O)n2-c2ccc(OCC(N)=O)cc2)C[C@@H](C)N(C(=O)c2ccc(Br)c(C(F)(F)F)c2)C3)n1 [Compound 5, (R)-2-(4-(7-(4-bromo-3-(trifluoromethyl)benzoyl)-2-(3,5-dimethyl-1H-pyrazol-1-yl)-6-methyl-4-oxo-5,6,7,8-tetrahydropyrido[3,4-d]pyrimidin-3(4H)-yl)phenoxy)acetamide] | < 50 | > 500
6 | Cc1cc(C)n(-c2nc3c(c(=O)n2-c2ccc(OC[C@@H](O)CO)cc2)C[C@@H](C)N(C(=O)c2ccc(Br)c(C(F)(F)F)c2)C3)n1 [Compound 6, (R)-7-(4-bromo-3-(trifluoromethyl)benzoyl)-3-(4-((S)-2,3-dihydroxypropoxy)phenyl)-2-(3,5-dimethyl-1H-pyrazol-1-yl)-6-methyl-5,6,7,8-tetrahydropyrido[3,4-d]pyrimidin-4(3H)-one] | 50 to 500 | > 500
7 | Cc1cc(C)n(-c2nc3c(c(=O)n2-c2ccc(OC[C@H](O)CO)cc2)C[C@@H](C)N(C(=O)c2ccc(Br)c(C(F)(F)F)c2)C3)n1 [Compound 7, (R)-7-(4-bromo-3-(trifluoromethyl)benzoyl)-3-(4-((R)-2,3-dihydroxypropoxy)phenyl)-2-(3,5-dimethyl-1H-pyrazol-1-yl)-6-methyl-5,6,7,8-tetrahydropyrido[3,4-d]pyrimidin-4(3H)-one] | < 50 | > 500
8 | Cc1cc(C)n(-c2nc3c(c(=O)n2-c2ccc(NC[C@@H](C)O)nc2)C[C@@H](C)N(C(=O)c2ccc(Br)c(C(F)(F)F)c2)C3)n1 [Compound 8, (R)-7-(4-bromo-3-(trifluoromethyl)benzoyl)-2-(3,5-dimethyl-1H-pyrazol-1-yl)-3-(6-(((R)-2-hydroxypropyl)amino)pyridin-3-yl)-6-methyl-5,6,7,8-tetrahydropyrido[3,4-d]pyrimidin-4(3H)-one] | < 50 | > 500
9 | Cc1cc(C)n(-c2nc3c(c(=O)n2-c2ccc(N4CC[C@@H](O)C4)nc2)C[C@@H](C)N(C(=O)c2ccc(Br)c(C(F)(F)F)c2)C3)n1 [Compound 9, (R)-7-(4-bromo-3-(trifluoromethyl)benzoyl)-2-(3,5-dimethyl-1H-pyrazol-1-yl)-3-(6-((R)-3-hydroxypyrrolidin-1-yl)pyridin-3-yl)-6-methyl-5,6,7,8-tetrahydropyrido[3,4-d]pyrimidin-4(3H)-one] | < 50 | > 500
10 | Cc1cc(C)n(-c2nc3c(c(=O)n2-c2ccc(N4CCNCC4)nc2)C[C@@H](C)N(C(=O)c2ccc(Br)c(C(F)(F)F)c2)C3)n1 [Compound 10, (R)-7-(4-bromo-3-(trifluoromethyl)benzoyl)-2-(3,5-dimethyl-1H-pyrazol-1-yl)-6-methyl-3-(6-(piperazin-1-yl)pyridin-3-yl)-5,6,7,8-tetrahydropyrido[3,4-d]pyrimidin-4(3H)-one hydrochloride] | < 50 | > 500
11 | Cc1cc(C)n(-c2nc3c(c(=O)n2-c2ccc(N4CCN(C)CC4)nc2)C[C@@H](C)N(C(=O)c2ccc(Br)c(C(F)(F)F)c2)C3)n1 [Compound 11, (R)-7-(4-bromo-3-(trifluoromethyl)benzoyl)-2-(3,5-dimethyl-1H-pyrazol-1-yl)-6-methyl-3-(6-(4-methylpiperazin-1-yl)pyridin-3-yl)-5,6,7,8-tetrahydropyrido[3,4-d]pyrimidin-4(3H)-one] | < 50 | > 500
12 | Cc1cc(C)n(-c2nc3c(c(=O)n2-c2ccc(OC[C@H](C)OP(=O)(O)O)cc2)C[C@@H](C)N(C(=O)c2ccc(Br)c(C(F)(F)F)c2)C3)n1 [Compound 12, (S)-1-(4-((R)-7-(4-bromo-3-(trifluoromethyl)benzoyl)-2-(3,5-dimethyl-1H-pyrazol-1-yl)-6-methyl-4-oxo-5,6,7,8-tetrahydropyrido[3,4-d]pyrimidin-3(4H)-yl)phenoxy)propan-2-yl dihydrogen phosphate] | 50 to 500 | > 500
13 | Cc1cc(C)n(-c2nc3c(c(=O)n2-c2ccc4c(cnn4C)c2)C[C@@H](C)N(C(=O)c2ccc(Br)c(C(F)(F)F)c2)C3)n1 [Compound 13, (6R)-7-[4-bromo-3-(trifluoromethyl)benzoyl]-2-(3,5-dimethylpyrazol-1-yl)-6-methyl-3-(1-methylindazol-5-yl)-6,8-dihydro-5H-pyrido[3,4-d]pyrimidin-4-one] | < 50 | > 500
14 | Cc1cc(C)n(-c2nc3c(c(=O)n2-c2ccc(OC[C@@H](C)O)cc2)C[C@@H](C)N(C(=O)c2ccc(Br)c(C(F)(F)F)c2)C3)n1 [Compound 14, (6R)-7-[4-bromo-3-(trifluoromethyl)benzoyl]-2-(3,5-dimethylpyrazol-1-yl)-3-[4-[(2R)-2-hydroxypropoxy]phenyl]-6-methyl-6,8-dihydro-5H-pyrido[3,4-d]pyrimidin-4-one] | < 50 | > 500
15 | Cc1cc(C)n(-c2nc3c(c(=O)n2-c2ccc(OC[C@H](C)O)cc2)C[C@@H](C)N(C(=O)c2ccc(Br)c(C(F)(F)F)c2)C3)n1 [Compound 15, (6R)-7-[4-bromo-3-(trifluoromethyl)benzoyl]-2-(3,5-dimethylpyrazol-1-yl)-3-[4-[(2S)-2-hydroxypropoxy]phenyl]-6-methyl-6,8-dihydro-5H-pyrido[3,4-d]pyrimidin-4-one] | < 50 | > 500
